# According to patent US8981179B2, “Transgenic non-human animal and uses thereof” (Sanofi, priority 2009, dated 2015):
# Columns and labels:
# [1] = Blood glucose in unfasted CRE-luc mice; type: in vivo, mouse; conditions: line 11, STZ 200 mpk, ip, unfasted mice
# Experimental: The induction of CRE-Luc by AVE0010 is likely beta-cell-specific (FIG. 31). Animals were treated as described in FIG. 30. Blood glucose levels were measured by tail vein nicking on unfasted mice. Glucose levels were read on a Bayer glucometer. Glucose levels are shown as mg glucose/[…]. Fold induction is the luciferase bioimaging levels of AVE10 dosing versus the baseline signals. Blood glucose levels (BG) were increased by STZ (upper left panel). Non-fasting BG levels were reduced by AVE0010 (0.1 mg/kg, sc).
# [2] = system: beta-cell; assay: Effect of beta-cell toxin on induction of CRE-Luc by AVE0010; type: in vivo, mouse; conditions: line 11, STZ 200 mpk, ip, imaged four days later after AVE0010
# Experimental: Male CRE-luc mice (line 11) were imaged before and after AVE0010 (0.1 mg/kg, sc) treatment. […] Then, the animals were treated with vehicle or STZ (200 mpk, ip). Four days later, they were imaged again after AVE0010 treatment.
# [3] = molecular target: T1, DP1 receptor (Mus musculus, UniProt P70263); assay: Primary microglia CreLuc luciferase assay, DP agonist; type: cell-based; conditions: 10 μM, 4 hours
# T1 construct: Primary microglia were isolated from the cortices from P2 mice; endogenous in cells; host or cells: whole splenocytes, CD4+ T cells and primary microglia (P2 cortices), CreLuc mouse line 64
# T1 sequence (P70263 1-357): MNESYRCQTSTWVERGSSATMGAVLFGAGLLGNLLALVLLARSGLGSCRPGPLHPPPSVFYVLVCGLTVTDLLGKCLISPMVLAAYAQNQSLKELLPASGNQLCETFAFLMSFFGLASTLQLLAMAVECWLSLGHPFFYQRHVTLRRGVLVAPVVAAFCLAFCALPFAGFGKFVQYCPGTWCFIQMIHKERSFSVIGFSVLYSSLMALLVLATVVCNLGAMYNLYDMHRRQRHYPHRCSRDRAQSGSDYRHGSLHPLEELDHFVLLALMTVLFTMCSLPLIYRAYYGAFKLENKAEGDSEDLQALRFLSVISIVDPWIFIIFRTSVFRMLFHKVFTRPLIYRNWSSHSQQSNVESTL
# Experimental: (§1) Induction of luciferase expression in microglia isolated from CreLuc mice by the general cAMP activators, forskolin and rolipram, and an agonist for the DP receptor, BW245C was examined (FIG. 22). Primary microglia were isolated from the cortices from P2 mice in media consisting of DMEM (GIBCO Cat#11995), 10% FBS (GIBCO Cat#16140) and 1% Penicillin-Streptomycin 100× (GIBCO Cat#15140). The cells were plated in 96 well format on Poly-D-Lysine-coated plates. Cells were either left untreated or stimulated for 2 hours with 100 ng/ml LPS. Compounds were then added for an additional 4 hours before the Bright Glo assay was run. The compounds used were 5 μM forskolin, 10 μM rolipram or the combination of the two, or the Gs agonist for the DP1 receptor, BW245C at 10 μM. In unstimulated conditions, microglia are unresponsive to general cAMP modulators and the specific Gs agonist for the DP receptor. However, when microglia were stimulated with LPS, the cells became responsive to forskolin and BW245C.
# [4] = molecular target: T2, DP (Mus musculus, UniProt P70263); assay: Isolated CD4+ T cells CreLuc luciferase assay, DP agonist; type: cell-based; conditions: line 64 CD4+ T cells, anti CD3 24 hours, 10 μM, 4 hours
# T2 construct: Primary microglia were isolated from the cortices from P2 mice; endogenous in cells; host or cells: whole splenocytes, CD4+ T cells and primary microglia (P2 cortices), CreLuc mouse line 64
# T2 sequence (P70263 1-357): T1 sequence (P70263 1-357)
# Experimental: The effects of different Gs agonists on luciferase levels in anti CD3 stimulated CD4+ T cells isolated from CreLuc mice was studied (FIG. 19). Whole splenocyte populations were prepared by mechanical disruption. CD4+ cells were then isolated by MACS Magnetic Separation with Positive Selection (Miltenyi Biotec cat#130-049-201). The cells, 1.5×10^5 per well, were then plated on 96 well white opaque plates and then stimulated with anti CD3 antibodies (BD Pharmingen cat#553058). After 24 hours, compounds were added for an additional 4 hours. Gs agonists for DP (BW245C), EP2 (EX00000173A) and ADβR (isoproterenol) were all used at 10 μM. Forskolin 5 μM, and rolipram 10 μM. BrightGlo (Promega, Madison, Wis., cat#E2610) was added and the assay was read on the TopCount. A 25-fold increase is observed in cells treated with forskolin and rolipram. […] The transgene was responsive to specific Gs agonists as well as general modulators of the cAMP pathway.
# [5] = molecular target: T3, prostaglandin D2 receptor 1 (DP1) (Mus musculus, UniProt P70263); assay: Whole splenocytes CreLuc luciferase assay, DP1 agonist; type: cell-based; conditions: line 64 whole splenocytes, 10 uM, 4 hours
# T3 construct: Primary microglia were isolated from the cortices from P2 mice; endogenous in cells; host or cells: whole splenocytes, CD4+ T cells and primary microglia (P2 cortices), CreLuc mouse line 64
# T3 sequence (P70263 1-357): T1 sequence (P70263 1-357)
# Experimental: Whole splenocyte preps isolated from CreLuc mice were used to show the effects of general cAMP inducers such as forskolin and rolipram, as well as Gs agonists on luciferase expression (FIG. 16). Spleens were harvested from the animals in 1×HBSS (Invitrogen, Carlsbad, Calif., cat#14025). The cells were then isolated by mechanically disrupting the spleen capsule using the end of a 5 ml syringe in 5 mls of D-PBS (Invitrogen, Carlsbad, Calif., cat#14190). The cell suspension was then passed through a 70 um strainer into a 50 ml conical tube. The cells were then spun down at 800 rpm, then resuspended and incubated for 6 minutes at room temperature in 5 ml of 1× Pharm Lyse solution (BD BioSciences, cat#555899). Cells were then washed by adding 28 mls of media consisting of RPMI 1640 (Invitrogen, Carlsbad, Calif., cat#11875), 10% FCS (Invitrogen, Carlsbad, Calif., cat#16000), 1% pen/strep (Invitrogen, Carlsbad, Calif., cat#15070) and 0.1% β-mercaptoethanol (Invitrogen, Carlsbad, Calif., cat#21985). Cells were diluted to 2×10^6/ml, and 100 ul of the cells were plated per well in a 96 well white opaque plate. Half of the cells were stimulated for 24 hours with anti-CD3 antibody (BD Pharmingen, cat#553058), the other half were untreated. […] After 4 hours, 100 μl of BrightGlo (Promega, Madison, Wis., cat#E2610) and the assay was read on a TopCount luminometer. […]
# [6] = system: plasma cAMP; assay: In vivo stimulation of cAMP in plasma (ELISA); set-up: species or system FVB/Tac mice; conditions: FVB/Tac females, i.p., forskolin 5 mg/kg, rolipram 10 mg/kg, 30 minutes
# Experimental: FVB/Tac females were dosed with either vehicle (1% DMSO) or drugs i.p., then 30 minutes later, blood samples were collected and assayed for cAMP by ELISA (Assay Designs, Ann Arbor, Mich., cat#900-163). The drugs used are as follows: 5 mg/kg forskolin (F) (Sigma F6886), 5 mg/kg water soluble forskolin (H20F) (Calbiochem 344273), 10 mg/kg rolipram (R) (Sigma R6520) or combinations of either forskolin plus rolipram (F/R). […] Forskolin increases cAMP levels by activating adencylate cyclase while inhibitors of PDE4, such as rolipram, raise plasma cAMP by preventing hydrolysis of cAMP. A combination of rolipram and water soluble forskolin increases cAMP levels in vivo 14 fold. This combination was used to provide a large window of induction for founder screening by bioimaging, a representative study is shown in FIG. 6.
# FIG. 5B is a cAMP assay on plasma levels in wild-type mice following various treatment with forskolin (F), rolipram (R) or a combination of forskolin and rolipram (F/R). […]
# [7] = system: cAMP (CreLuc luciferase reporter); assay: Primary microglia CreLuc luciferase assay, general cAMP activators; type: cell-based, mouse; conditions: line 64, unstimulated, 5 μM forskolin, 10 μM rolipram, 4 hours
# Experimental: as §1
# [8] = system: plasma cAMP; conditions: Balb/c mice, 10 mg/kg, blood harvested after 20 minutes; cited from earlier work
smiles,measurement,setting,value
"CN(N=O)C(=O)N[C@H]1C(O)O[C@H](CO)[C@@H](O)[C@@H]1O (mixture of isomers) [STZ, streptozotocin]",blood glucose levels (BG),[1],increased
same,luciferase induction by AVE0010 compared to vehicle group,[2],decreased luciferase induction
O=C(O)CCCCCCC1C(=O)NC(=O)N1CCC(O)C1CCCCC1 (stereo not drawn) [BW245C],luciferase response of LPS stimulated microglia,"[3]; line 64, 100 ng/ml LPS 2 hours",responsive
same,luciferase response of unstimulated microglia,"[3]; line 64, unstimulated",unresponsive
same,increase of luciferase,[4],3 fold
same,luciferase versus DMSO only control (t-test),[5],Statistically significant increases
COc1ccc(C2CNC(=O)C2)cc1OC1CCCC1 (stereo not drawn) [rolipram],elevation of circulating cAMP levels vs vehicle,[6],statistically significance in their elevation
same,luciferase response of unstimulated microglia,[7],unresponsive
same,plasma cAMP levels,[8],significantly increase
